Measured values: patent publication US20140113958A1, “HCV Combination Therapy” (priority 2011, published 2014)
“And” between values parts separate entries of the source, which are not always exact repeats. Identical values can stand only once. “Also recorded” adds a separate entry of the source. Like-named read-outs stand apart in the source and are kept apart here.

Assays:
[1] = test system: HCV genotype Ib replicon (I389luc-ubi-neo/NS3-3′/ET) in Huh-luc/neo-ET cells; type: cell-based
Protocol: (§1) The anti-viral efficacy and cellular toxicity of non-transfected antimiR oligonucleotide in combination with approved and experimental anti-HCV therapeutics (e.g. NM283, 2′-C-methylcytidine, and/or VX-222) (or other NS5B polymerase inhibitors) was determined in the reporter cell line Huh-luc/neo-ET. This cell line harbors the persistently replicating I389luc-ubi-neo/NS3-3′/ET replicon containing the firefly luciferase gene-ubiquitin-neomycin phosphotransferase fusion protein and EMCV IRES driven NS3-5B HCV coding sequences containing the ET tissue culture adaptive mutations (E1202G, T1208I, and K1846T). Eight dilutions of non-transfected antimiR oligonucleotide (bracketing the calculated EC50) were evaluated in triplicate on duplicate sets of three plates with five dilutions of each of the control compounds (bracketing the calculated EC50). One set of plates was used for the determination of cellular toxicity and the other set of plates was used for the determination of anti-viral efficacy. The efficacy and toxicity results was quantified with firefly luciferase activity and XTT dye reduction, respectively, and the results of the assay is imported into the Prichard and Shipman MacSynergy II software program. The MacSynery II analysis includes calculation of the dose response of the two (or more) compounds when used alone followed by calculation of the expected additive level of antiviral inhibition or toxicity when the compounds are used together based on the individual dose response curves. The expected level of activity at each of the concentration data points was compared to the experimentally determined antiviral activity in the assay. The expected activity was subtracted from the realized activity, yielding a negative, zero or positive value. These values are plotted as a three dimensional representation of the data and the result is reported as a two-factor value, expressing the combined average above the expected level of activity (synergy volume) and the combined average below the expected level of activity (antagonism volume). Combination analysis was performed two or more times for each pair of test compound and control substance.
(§2) The reporter cell line Huh-luc/neo-ET was obtained from Dr. Ralf Bartenschlager (Department of Molecular Virology, Hygiene Institute, University of Heidelberg, Germany) by ImQuest BioSciences. This cell line harbors the persistently replicating 1389luc-ubi-neo/NS3-3′IET replicon containing the firefly luciferase gene-ubiquitinneomycin phosphotransferase fusion protein and EMCV IRES driven NS3-5B HCV coding sequences containing the ET tissue culture adaptive mutations (E 1202G, T12081, and KI846T). A stock culture of the Huh-luc/neo-ET was expanded by culture in DMEM supplemented with 10% FBS, 2 mM glutamine, penicillin (100 IU/mL)/streptomycin (100 f·Ig/mL) and IX nonessential amino acids plus I mg/ml G418. Prior to plating, the cells were split 1:4 and cultured for two passages in the same medium plus 250 f·Ig/mL G418. The cells were treated with trypsin and enumerated by staining with trypan blue and seeded into 96-well tissue culture plates at a cell culture density 5.0×10^3 cells per well in a volume of 85 f·IL per well and incubated at […] in an environment of 5% CO2 for 24 hours. Six plates were established for the determination of combination efficacy (EC50) and cytotoxicity (TC50) for each of the compound combinations (three plates each for efficacy and toxicity). Following the 24 hour incubation, eight 2-fold serial dilutions of SPC3649 in cell culture medium without G418 were prepared (final in well high test concentration of 1.20 μM to 2.40 μM) and added to the cells and five 2-fold or 5-fold serial dilutions of control compounds in cell culture medium without G418 were prepared and added to the cells.

[2] = test system: Huh-luc/neo-ET cells; experiment: Cellular toxicity by XTT dye reduction in Huh-luc/neo-ET cells
Protocol: as §1
as §2, with “Following the 24 hour incubation, eight 2-fold serial dilutions of SPC3649 in cell culture medium without G418 were prepared (final in well high test concentration of 1.20 μM to 2.40 μM) and added to the cells and five 2-fold or 5-fold serial dilutions of control compounds in cell culture medium without G418 were prepared and added to the cells.” left out

[3] = test system: Huh-luc/neo-ET HCV genotype Ib replicon cells; type: cell-based; details: selection with G418, 28 days
Protocol: Cell culture and Assay setup: The reporter cell line Huh-luc/neo-ET was obtained and prepare as described previously. Cells were plated into 10 cm tissue culture dishes at a density of 3×10^5 cells per plate in culture medium containing 250 μg/ml G418 and incubated for 24 hours at 37° C. in an environment of 5% C02. Following the 24 hour incubation, dilutions of SPC3649, SPC4729, or telaprevir were prepared in cell culture medium (as above) with 750 μg/ml G418. Each of the dilutions was added to duplicate plates and the plates were incubated at 37° C. in an environment of 5% CO^2. Two additional plates received cell culture medium with 750 μg/ml G418 as a no-treatment control. […] The final concentration of SPC4729 was 10.0 μM. […] Following 28 days of passage, one set of dishes was stained with crystal violet and the other set of plates was utilized for expansion and establishment of resistant cell culture stocks.
Huh-luc/neo-ET HCY genotype Ib replicon cells were cultured under selective pressure in the presence of 750 μg/mL G4 I8 with and without four independent fixed concentrations of SPC3649 anti-miR oligonucleotide, or telaprevir, or one concentration of scrambled oligonucleotide SPC4729 for 28 days in tissue culture plates. Duplicate tissue culture dishes were established and maintained for each culture condition. Medium was replaced bi-weekly during the 28 days of culture and the cells were split at the time of medium replenishment to maintain a confluent cell culture monolayer. Following four weeks in culture, cells were either fixed with methanol and stained with crystal violet or expanded for subsequent phenotypic and genotypic characterization.

[4] = test system: HCV genotype 1b replicon NS3 A156T; type: cell-based; details: EC50 mutant / EC50 wild-type; mean of two experiments (individual values)
Protocol: (§3) The in vitro antiviral of miravirsen was evaluated against wild-type HCV genotype 1b replicon and HCV genotype 1b replicons constructed to contain key amino acid substitutions in NS3 protease (A156T, R155K), NS5B polymerase (S282T, M423I) and NS5A protein (Y93H) in transient transfection assays utilizing Huh 7 cells. […] Huh 7 cells were transfected with either the wild-type or the mutant RNA constructs by electroporation. Luciferase activity was measured 72 hours after compound treatment and EC50 values determined from dose-response curves. Fold resistance was expressed as the ratio of the EC50 for mutant HCV replicon to the EC50 for wild-type HCV replicon.
(§4) The in vitro antiviral of miravirsen was evaluated against wild-type HCV genotype 1b replicon and HCV replicons constructed to contain key amino acid substitutions in NS3 protease (A156T, R155K), NS5B polymerase (S282T, M423I) and NS5A protein (Y93H) in transient transfection assays. […] Huh 7 cells were transfected with either the wild type or the mutant RNA constructs by electroporation. Luciferase activity was measured 72 hours after compound treatment and EC50 values determined from dose-response curves. Fold resistance was expressed as the ratio of the EC50 for mutant HCV replicon to the EC50 for wild-type HCV replicon. Results are expressed as the mean of two individual experiments. In an initial set of experiments, the standard protocol was modified by adding compounds 24 hours after electroporation. […] In a third experiment cells were pretreated with miravirsen for 24 hours before electroporation with wild-type RNA constructs to determine if preincubation could result in increased miravirsen antiviral activity.

[5] = test system: HCV genotype 1b replicon NS3 R155K; type: cell-based; details: EC50 mutant / EC50 wild-type; mean of two experiments (individual values)
Protocol: as §3, §4

[6] = test system: HCV genotype 1b replicon NS5A Y93H; type: cell-based; details: EC50 mutant / EC50 wild-type; mean of two experiments (individual values)
Protocol: as §3, §4

[7] = test system: HCV genotype 1b replicon NS5B M423I; type: cell-based; details: EC50 mutant / EC50 wild-type; mean of two experiments (individual values)
Protocol: as §3, §4

[8] = test system: HCV genotype 1b replicon NS5B S282T; type: cell-based; details: EC50 mutant / EC50 wild-type, mean of two experiments (individual values)
Protocol: as §3, §4

[9] = in combination with ribavirin, 95% confidence level
[10] = second drug in combination with miravirsen (SPC3649), 95% confidence interval, median (≧3 experiments) or individual values
[11] = second drug in combination with miravirsen (SPC3649), overall
[12] = second drug in combination with miravirsen (SPC3649), 95% confidence interval, median or individual values

Compound: 5′-Ts.^ocsAs.^otsas.^mCs.^oTs.^oastsAs.^otsGs.^oas.^mCs.^oA.^o-3′ [SPC4729]
- Efficacy, Synergy vol [1]: 0.00/−177.6 μM^2%
- overall antiviral interaction ([1]; in combination with ribavirin): antagonistic
- Efficacy, Antag Vol ([1]; in combination with ribavirin, 95% confidence level, individual values): 0.00/−177.6 μM^2%
- impact of combination on in vitro cytotoxicity ([2]; in combination with ribavirin): slight higher cytotoxicity
- Cytotoxicity, Antag Vol [2, 9]: −44.3 μM^2%
- Cytotoxicity, Synergy vol [2, 9]: 0.00 μM^2%
- rate of cell expansion [3]: did not decrease the rate of cell expansion

Compound: C[C@@]1(O)[C@H](O)[C@@H](CO)O[C@H]1n1ccc(N)nc1=O [2′-C-Methylcytidine, 2′-C-methylcytidine]
- interaction in individual assay replicates ([1]; in combination with SPC 3649, part of the replicates, listed as 2-methyl cytidine): positive interactions; also recorded: slightly antagonistic interaction
- Efficacy, Antagonism vol [1, 10]: −27.6 μM^2%
- Efficacy, Synergy vol [1, 10]: 0 μM^2%
- Efficacy, Synergy vol ([1]; second drug in combination with miravirsen (SPC3649), 95% confidence interval, median (≧3 experiments) or individual values, listed as 2-methyl cytidine): 0.0 μM^2%
- Interaction [1, 11]: Positive
- Interaction ([1]; second drug in combination with miravirsen (SPC3649), overall, listed as 2-methyl cytidine): positive interaction
- Cytotoxicity, Antagonism vol [2, 12]: −0.67 μM^2%
- Cytotoxicity, Synergy vol [2, 12]: 0 μM^2%
- fold change in susceptibility, NS3 A156T [4]: 0.9 (1.0, 0.8) fold
- fold change in susceptibility, NS3 R155K [5]: 0.8 (1.0, 0.6) fold
- fold change in susceptibility, NS5A Y93H [6]: 1.0 (1.2, 0.8) fold
- fold change in susceptibility, NS5B M423I [7]: 1.0 (0.9, 1.1) fold
- fold change in susceptibility, NS5B S282T ([8]; listed as 2′Me-C): 42.8 fold and 45.8 fold
- fold change in susceptibility, NS5B S282T ([8]; listed as 2′Me—C): 45.8 (49.3, 42.3) fold

Compound: COC(=O)N[C@H](C(=O)N1CCC[C@H]1c1nc(-c2ccc(-c3ccc(-c4c[nH]c([C@@H]5CCCN5C(=O)[C@@H](NC(=O)OC)C(C)C)n4)cc3)cc2)c[nH]1)C(C)C [BMS 790052, Dimethyl (2S,2′S)-1,1′-((2S,2′S)-2,2′-(4,4′-(biphenyl-4,4′-diyl)bis(1H-imidazole-4,2-diyl))bis(pyrrolidine-2,1-diyl))bis(3-methyl-1-oxobutane-2,1-diyl)dicarbamate]
- Efficacy, Antagonism vol [1, 10]: −25.5 μM^2% and −0.1 μM^2% and 0/−24.5; μM^2% and 18.46/−0.06 μM^2%
- Interaction [1, 11]: Positive
- Cytotoxicity, Antagonism vol [2, 12]: −21.9 μM^2%
- Cytotoxicity, Synergy vol [2, 12]: 0 μM^2%
- fold change in susceptibility, NS5A Y93H [6]: 29.9 fold and 29.9 (32.7, 27.0) fold

Compound: NC(=O)c1ncn([C@@H]2O[C@H](CO)[C@@H](O)[C@H]2O)n1 [Ribavirin, 1-[(2R,3R,4S,5R)-3,4-dihydroxy-5-(hydroxymethyl)oxolan-2-yl]-1H-1,2,4-triazole-3-carboxamide]
- Interaction [1]: Positive
- antagonism volume [1]: −292.6 μM^2%
- interaction in individual assay replicates [1]: additive interaction; also recorded: highly antagonistic interaction

Compound: CC(C)(C)C#Cc1cc(N(C(=O)[C@H]2CC[C@H](C)CC2)[C@H]2CC[C@H](O)CC2)c(C(=O)O)s1 [VX-222]
- Efficacy, Antagonism vol [1, 10]: −34.4 μM^2% and −4.27 μM^2% and 4.81/−34.44; μM^2% and 0.82/−4.27 μM^2%
- Interaction [1, 11]: Positive
- Cytotoxicity, Antagonism vol [2, 12]: −28.6 μM^2% and 0 μM^2%
- Cytotoxicity, Synergy vol [2, 12]: 0 μM^2%
- fold change in susceptibility, NS5B M423I [7]: 4.4 fold and 4.4 (3.6, 5.2) fold
